Data from paper PMC11528320, “S-MGBs bearing amidine tail groups are potent, selective antiplasmodial agents” (RSC Medicinal Chemistry, 2024).
Like-named read-outs stand apart in the source and are kept apart here.

What was measured:
[1] = system: P. falciparum Dd2; assay: in vitro asexual P. falciparum imaging assay, Dd2 strain; assay type: cell-based
Procedure: (§1) The antiplasmodial in vitro assay was performed as previously described.[13] In brief, P. falciparum parasites (3D7 and Dd2 strains) were grown in RPMI-1640 medium supplemented with 25 mM HEPES, 5% AB human male serum, 2.5 mg mL^−1 Albumax II, and 0.37 mM hypoxanthine. Parasites were subjected to two rounds of sorbitol synchronization prior to compound addition. Ring stage parasites were incubated with compounds in 384-well imaging CellCarrier microplates, for 72 h at 37 °C, 90% N2, 5% CO2, 5% O2, parasites stained with 4′,6-diamidino-2-phenylindole (DAPI) and imaged using an Opera QEHS microplate confocal imaging system (PerkinElmer). Images were analysed as previously described,[13] and raw data normalized using the in-plate positive and negative controls to obtain percent inhibition, used to calculate IC50 values, through a four-parameter logistic curve fitting in Prism (GraphPad).

[2] = system: P. falciparum 3D7; assay: in vitro asexual P. falciparum imaging assay, 3D7 strain; assay type: cell-based
Procedure: as §1

[3] = system: HEK293 cells; assay: HEK293 cell viability (resazurin) assay; assay type: cell-based, Human; settings: for IC50 / inhibition at 80 µM: Homo sapiens; for IC50: HEK293, 72 h; for SI, HEK293/3D7: ratio of HEK293 IC50 (or relative IC50) to P. falciparum 3D7 IC50; for inhibition at 80 µM: HEK293, 72 h
Procedure: Cell viability was assessed using a minor modification of the protocol previously described.[14] Human embryonic kidney cells (HEK293) were maintained in Dulbecco's modified Eagle's medium supplemented with 10% foetal bovine serum.

[4] = ratio of Dd2 IC50 to 3D7 IC50 (cross-resistance)
[5] = Plasmodium falciparum, DD2, 72 h; read-out: Dd2 IC50
[6] = Plasmodium falciparum, 3D7, 72 h; read-out: 3D7 IC50

Row | Compound | IC50 ([1]; Plasmodium falciparum, DD2, 72 h, read-out: Dd2 IC50) [nM] | Dd2/3D7 [1, 4] | IC50 ([2]; Plasmodium falciparum, 3D7, 72 h, read-out: 3D7 IC50) [nM] | IC50 [1, 5] [nM] | IC50 [3] [nM] | SI, HEK293/3D7 [3] | IC50 [2, 6] [nM] | inhibition at 80 µM [3] [%]
1 | CCN(CC)CCCC(C)Nc1ccnc2cc(Cl)ccc12 (stereo not drawn) [Chloroquine, chloroquine, reference compound] | 225 ± 84.4 | 7.2 | 31.3 ± 9.7 | – | – | – | – | –
2 | COc1ccc(C[C@H](N)C(=O)N[C@H]2[C@@H](O)[C@H](n3cnc4c(N(C)C)ncnc43)O[C@@H]2CO)cc1 [Puromycin, puromycin, reference compound] | – | 1.2 | – | 49.3 ± 3.5 | 378 | 9 | 41.9 ± 7.2 | –
3 | CCc1nc(N)nc(N)c1-c1ccc(Cl)cc1 [Pyrimeth-amine, pyrimethamine, reference compound] | – | – | – | > 80000 | 3980 | 1478 | 2.69 ± 0.26 | –
4 | COc1ccc2nc3cc(Cl)ccc3c(Nc3cc(CN4CCCC4)c(O)c(CN4CCCC4)c3)c2n1 [Pyronaridine, pyronaridine, reference compound] | – | 1.3 | – | 33.3 ± 6.1 | 3050 | 114 | 26.7 ± 3.8 | –
5 | COc1cccc(/C=C/c2ccc(C(=O)Nc3cc(C(=O)Nc4cc(C(=O)NCCCN(C)C)n(C)c4)n(C)c3)cc2)c1.O=C(O)C(F)(F)F [S-MGB-131] | – | 1.3 | – | 254.4 ± 0.2 | – | – | 200 | 101
6 | Cn1cc(NC(=O)c2cc(NC(=O)c3ccc(/C=C/c4ccc(C(F)(F)F)cc4)cc3)cn2C)cc1C(=O)NCCN1CCOCC1.O=C(O)C(F)(F)F [S-MGB-176] | – | 1.6 | – | 1236 ± 3 | – | >53 | 756 ± 0.8 | 80
7 | Cn1cc(NC(=O)c2cc(NC(=O)c3ccc(/C=C/c4ccc5nsnc5c4)cc3)cn2C)cc1C(=O)NCCN1CCOCC1.O=C(O)C(F)(F)F [S-MGB-188] | – | 1.1 | – | 61.9 ± 0.3 | – | >193 | 57 ± 0.1 | 86
8 | CC(C)n1cc(NC(=O)c2cc(NC(=O)c3ccc(/C=C/c4cnc5ccccc5c4)cc3)cn2C)cc1C(=O)NCCN1CCOCC1.O=C(O)C(F)(F)F [S-MGB-192] | – | 1.1 | – | 108 ± 20.6 | 3190 | 33 | 96.3 ± 12.8 | –
9 | CN(C)c1ccc(/C=C/c2ccc(C(=O)Nc3cc(C(=O)Nc4cc(C(=O)NCCN5CCOCC5)n(C)c4)n(C)c3)cn2)cc1.O=C(O)C(F)(F)F [S-MGB-245] | – | 1.1 | – | 169.1 ± 0.5 | 2750 | 17 | 161 ± 0.5 | –
10 | CN(C)CCNC(=O)c1cc(NC(=O)c2cc(NC(=O)c3ccc(/C=C/c4ccc(N(C)C)cc4)nc3)cn2C)cn1C.O=C(O)C(F)(F)F [S-MGB-246] | – | 1.2 | – | 53 ± 0.4 | 3860 | 90 | 43 ± 0.6 | –
11 | COc1cccc(/C=C/c2ccc(C(=O)Nc3cc(C(=O)Nc4cc(C(=O)NCCN(C)C)n(C)c4)n(C)c3)cc2)c1.O=C(O)C(F)(F)F [S-MGB-247] | – | 1.3 | – | 138.6 ± 0.2 | – | >183.7 | 108.9 ± 0.2 | 100
12 | CN(C)CCNC(=O)c1cc(NC(=O)c2cc(NC(=O)c3ccc(/C=C/c4cnc5ccccc5c4)cc3)cn2C)cn1C.O=C(O)C(F)(F)F [S-MGB-248] | – | 1.7 | – | 57 ± 0.6 | 3130 | 94 | 33.4 ± 0.7 | –
13 | CC(C)CCn1cc(NC(=O)c2cc(NC(=O)c3cc(NC(=N)c4cc5ccccc5cn4)cn3C)cn2C)cc1C(=O)NCCCN(C)C.O=C(O)C(F)(F)F [S-MGB-330] | – | 1.6 | – | 636.1 ± 0.4 | – | >98.1 | 407.7 ± 0.1 | 100
14 | CN(C)CCCNC(=O)c1cc(NC(=O)c2cc(NC(=O)c3cc(NC(=N)c4cc5ccccc5cn4)cn3C)cn2C)cn1C.O=C(O)C(F)(F)F [S-MGB-337] | – | 1.1 | – | 101.8 ± 0.2 | – | >219.7 | 95.6 | 101
15 | Cn1cc(NC(=O)c2cc(NC(=O)c3ccc(/C=C/C(=O)Nc4ccccc4O)cc3)cn2C)cc1C(=O)NCCC(=N)N.O=C(O)C(F)(F)F [S-MGB-361] | – | 0.9 | – | 558.5 ± 0.4 | – | >63.1 | 633.9 ± 0.2 | 90
16 | COc1ccc(/C=C/c2ccc(C(=O)Nc3cc(C(=O)Nc4cc(C(=O)NCCC(=N)N)n(C)c4)n(C)c3)cc2)cc1.O=C(O)C(F)(F)F [S-MGB-367] | – | – | – | 620.3 ± 0.3 | – | >108.9 | 367.3 ± 0.9 | 81
17 | CC(C)CCc1sc(NC(=O)c2cc(NC(=O)c3ccc(/C=C/c4ccc(F)cc4)nc3)cn2C)nc1C(=O)NCCCN(C)C.O=C(O)C(F)(F)F [S-MGB-376] | – | 0.9 | – | 135 ± 1.6 | 9100 | 62 | 147.2 ± 1.4 | –
18 | CC(C)CCc1sc(NC(=O)c2cc(NC(=O)c3ccc(/C=C/c4ccc(C(F)(F)F)cc4)cc3)cn2C)nc1C(=O)NCCCN(C)C.O=C(O)C(F)(F)F [S-MGB-377] | – | 1.4 | – | 105 ± 6.3 | 4300 | 59 | 73.1 ± 4.7 | –
19 | CC(C)CCc1sc(NC(=O)c2cc(NC(=O)c3ccc(/C=C/c4cccc(F)c4)cc3)cn2C)nc1C(=O)NCCCN(C)C.O=C(O)C(F)(F)F [S-MGB-378] | – | 1.1 | – | 171 ± 2.9 | 10500 | 70 | 150 ± 4 | –
20 | CC(C)CCc1sc(NC(=O)c2cc(NC(=O)c3ccc(/C=C/c4ccc(F)cc4)cc3)cn2C)nc1C(=O)NCCCN(C)C.O=C(O)C(F)(F)F [S-MGB-379] | – | 1.0 | – | 148 ± 5.4 | 8340 | 56 | 150 ± 2.7 | –
21 | CC(C)CCc1sc(NC(=O)c2cc(NC(=O)c3ccc(/C=C/c4cccc(C(F)(F)F)c4)nc3)cn2C)nc1C(=O)NCCCN(C)C.O=C(O)C(F)(F)F [S-MGB-380] | – | 1.1 | – | 83.9 ± 3.6 | 8200 | 110 | 74.7 ± 2.8 | –
22 | CC(C)CCc1sc(NC(=O)c2cc(NC(=O)c3cc(NC(=O)c4cccc(F)c4)cn3C)cn2C)nc1C(=O)NCCCN(C)C.O=C(O)C(F)(F)F [S-MGB-386] | – | 0.8 | – | 207.1 ± 1.3 | – | >157 | 254.9 ± 1.2 | 101
23 | Cn1cc(NC(=O)c2cc(NC(=O)c3ccc(NC(=O)c4ccc(F)cc4)cc3)cn2C)cc1C(=O)NCCC(=N)N.O=C(O)C(F)(F)F [S-MGB-388] | – | 1.3 | – | 228.6 ± 2 | – | >192.9 | 181 ± 2.2 | 93
24 | Cn1cc(NC(=O)c2cc(NC(=O)c3ccc(NC(=O)c4cccc(F)c4)cc3)cn2C)cc1C(=O)NCCC(=N)N.O=C(O)C(F)(F)F [S-MGB-389] | – | 0.6 | – | 488 ± 1.8 | – | >46.6 | 857.5 ± 1.3 | 92
25 | Cn1cc(NC(=O)c2cc(NC(=O)c3ccc(/C=C/c4ccc(F)cc4)cc3)cn2C)cc1C(=O)NCCC(=N)N.O=C(O)C(F)(F)F [S-MGB-390] | – | 1.2 | – | 640.2 ± 0.6 | – | >75.1 | 532.6 ± 0.9 | 78
